pIC50: −log10 of the molar value.

For one assay, the target named is hT2R14 (Homo sapiens (Human), UniProt Q9NYV8). Nature of the assay: hT2R14 antagonist high-throughput FLIPR assay, stable cell line with G16g44, agonist aristolochic acid. Format: cell-based. Particulars: Table C; read-out: hT2R14 IC50. The procedure: The inventors also used the automated fluorimetric […] system FLIPR using a slightly different protocol. A HEK293 cell line stably expressing G16gust44 was transfected with a hT2R expression plasmid, 24 hours later, the cells are loaded and analyzed on FLIPR.
Sequence of hT2R14 (Q9NYV8 whole entry): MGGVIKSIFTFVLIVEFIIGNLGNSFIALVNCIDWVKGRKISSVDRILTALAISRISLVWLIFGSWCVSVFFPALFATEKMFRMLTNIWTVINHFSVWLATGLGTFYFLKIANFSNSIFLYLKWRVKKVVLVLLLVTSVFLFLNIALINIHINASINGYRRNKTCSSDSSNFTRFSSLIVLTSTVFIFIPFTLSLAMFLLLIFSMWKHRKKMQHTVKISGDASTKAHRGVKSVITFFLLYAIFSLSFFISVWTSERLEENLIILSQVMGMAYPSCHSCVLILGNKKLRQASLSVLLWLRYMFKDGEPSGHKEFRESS
After a ligand is identified for a particular hT2R, a HEK293 cell line stably expressing both the hT2R and G16gust44 are generated, facilitating future screening assays to identify other ligands that activate the particular hT2R or which modulate (block or enhance) the activation of this hT2R by another bitter ligand such as a bitter compound contained in coffee. This avoids the need for transient transfection.
To identify antagonists, cell lines stably expressing hT2R8 and hT2R14, respectively, together with the promiscuous chimeric G16g44 protein were generated as described in previous patent applications. A high-throughput assay was established using the stable cell lines and FLIPR (Fluorescent Imaging Plate Reader). An agonist of hT2R8 or hT2R14 was used to activate the receptors up to 70-80% of their respective maximal activity. For hT2R8, the agonist used was andrographolide (200 […]); for hT2R14, it was aristolochic acid (3 μM). To identify antagonists, compounds with diverse chemical structures were added together with the agonist.
Regarding `O=C(O)c1ccc(CN(Cc2ccccc2)S(=O)(=O)c2ccc(Cl)cc2)cc1` [Example 5-120, 4-((N-benzyl-4-chlorophenylsulfonamido)methyl)benzoic acid], the pIC50 was 6.40.

Turning to `COc1ccc2c(c1)-c1ccccc1CN(S(=O)(=O)c1ccc(C(=O)O)cc1)C2` [Example 5-158, 4-(2-methoxy-5H-dibenzo[c,e]azepin-6(7H)-ylsulfonyl)benzoic acid], the pIC50 was 5.45.

Take `Cc1cccc(CN(Cc2ccccc2)S(=O)(=O)c2ccc(C(=O)O)cc2)c1` [Example 5-135, 4-(N-benzyl-N-(3-methylbenzyl)sulfamoyl)benzoic acid]: the pIC50 is 5.64.

For `O=C(O)C1CCC(CN(Cc2ccc(F)cc2)S(=O)(=O)c2cccnc2)CC1` (stereo not drawn) [Example 5-52, 4-((N-(4-fluorobenzyl)pyridine-3-sulfonamido)methyl)cyclohexanecarboxylic acid], the pIC50 is 5.07.

In the case of `CCOC(=O)C1CCC(CN(Cc2ccccc2Cl)S(=O)(=O)c2ccc(C)cc2)CC1` (stereo not drawn) [Example 5-117, ethyl 4-((N-(2-chlorobenzyl)-4-methylphenylsulfonamido)methyl) cyclohexanecarboxylate], the pIC50 was 5.55.

As for `O=C(O)c1ccc(S(=O)(=O)N(Cc2ccccc2)Cc2ccccc2F)cc1` [Example 5-134, 4-(N-benzyl-N-(2-fluorobenzyl)sulfamoyl)benzoic acid], the pIC50 is 5.21.

Regarding `COc1ccc(CN(Cc2ccccc2)S(=O)(=O)c2ccc(C(=O)O)cc2)cn1` [Example 5-145, 4-(N-benzyl-N-((6-methoxypyridin-3-yl)methyl)sulfamoyl)benzoic acid], the pIC50 was 5.49.

Turning to `CCOC(=O)C1CCC(CN(Cc2ccccc2)S(=O)(=O)c2ccc(NC(C)=O)cc2)CC1` (stereo not drawn) [Example 5-115, ethyl 4-((4-acetamido-N-benzylphenylsulfonamido)methyl) cyclohexanecarboxylate], the pIC50 was 6.48.

As for `N#Cc1ccccc1CN(Cc1ccccc1)S(=O)(=O)c1ccc(C(=O)O)cc1` [Example 5-147, 4-(N-benzyl-N-(2-cyanobenzyl)sulfamoyl)benzoic acid], the negative-log IC50 (pIC50) was 5.33.

As to `CCc1ccc(CN(Cc2ccccc2)S(=O)(=O)c2ccc(C(=O)O)cc2)cc1` [Example 5-143, 4-(N-benzyl-N-(4-ethylbenzyl)sulfamoyl)benzoic acid], the pIC50 was 5.07.

Consider `COc1ccccc1CN(Cc1ccccc1)S(=O)(=O)c1ccc(C(=O)O)cc1` [Example 5-133, 4-(N-benzyl-N-(2-methoxybenzyl)sulfamoyl)benzoic acid], for which the pIC50 was 5.30.

Consider `CCc1ccc(CN(CC2CCC(C(=O)O)CC2)C(=S)Nc2ccccc2C)cc1` (stereo not drawn) [Example 5-113, 4-((1-(4-ethylbenzyl)-3-o-tolylthioureido)methyl) cyclohexanecarboxylic acid], for which the pIC50 was 5.30.

Take `Cc1ccccc1CN(Cc1ccccc1)S(=O)(=O)c1ccc(C(=O)O)cc1` [Example 5-140, 4-(N-benzyl-N-(2-methylbenzyl)sulfamoyl)benzoic acid]: the pIC50 is 5.53.

As for `COc1ccc(CN(Cc2ccccc2)S(=O)(=O)c2cccc(OC)c2)cc1` [Example 5-122, N-benzyl-3-methoxy-N-(4-methoxybenzyl)benzenesulfonamide], the pIC50 was 5.65.

As for `COc1ccc(C2Cc3ccccc3CN2S(=O)(=O)c2ccc(C(=O)O)cc2)cc1` (stereo not drawn) [Example 5-161, 4-(3-(4-methoxyphenyl)-3,4-dihydroisoquinolin-2(1H)-ylsulfonyl)benzoic acid], the pIC50 is 5.20.

Regarding `Cc1ccc(CN(CC2CCC(C(=O)O)CC2)S(=O)(=O)c2ccc(C)cc2)cc1` (stereo not drawn) [Example 5-126, 4-((4-methyl-N-(4-methylbenzyl)phenylsulfonamido)methyl) cyclohexanecarboxylic acid], the pIC50 is 6.96.

For `COc1ccc(CN(C(C)c2ccccc2)S(=O)(=O)c2ccc(C(=O)O)cc2)cc1` (stereo not drawn) [Example 5-149, 4-(N-(4-methoxybenzyl)-N-(1-phenylethyl)sulfamoyl)benzoic acid], the pIC50 was 5.85.

With `O=C(O)c1ccc(S(=O)(=O)N(Cc2ccccc2)Cc2ccc(F)cc2)cc1` [Example 5-131, 4-(N-benzyl-N-(4-fluorobenzyl)sulfamoyl)benzoic acid], the pIC50 was 5.08.

With `COc1ccc(CN(C2CCCc3ccccc32)S(=O)(=O)c2ccc(C(=O)O)cc2)cc1` (stereo not drawn) [Example 5-150, 4-(N-(4-methoxybenzyl)-N-(1,2,3,4-tetrahydronaphthalen-1-yl)sulfamoyl)benzoic acid], the pIC50 is 5.62.

On to `Nc1ccc(S(=O)(=O)N(Cc2ccc(F)cc2)CC2CCC(C(=O)O)CC2)cc1` (stereo not drawn) [Example 5-125, 4-((4-amino-N-(4-fluorobenzyl)phenylsulfonamido)methyl) cyclohexanecarboxylic acid], for which the pIC50 was 5.78.

Consider `COc1ccc(CN(Cc2ccccc2OC)S(=O)(=O)c2ccc(C(=O)O)cc2)cc1` [Example 5-121, 4-(N-(2-methoxybenzyl)-N-(4-methoxybenzyl)sulfamoyl)benzoic acid], for which the pIC50 was 5.53.

With `CSc1ccc(CN(Cc2ccccc2)S(=O)(=O)c2ccc(C(=O)O)cc2)cc1` [Example 5-138, 4-(N-benzyl-N-(4-(methylthio)benzyl)sulfamoyl)benzoic acid], the negative logarithm of the IC50 (pIC50) was 5.61.

For `CC(=O)Nc1ccc(S(=O)(=O)N(Cc2ccc(F)cc2)CC2CCC(C(=O)O)CC2)cc1` (stereo not drawn) [Example 5-124, 4-((4-acetamido-N-(4-fluorobenzyl)phenylsulfonamido)methyl) cyclohexanecarboxylic acid], the pIC50 is 6.07.

Still in this assay, the particulars now being: Table D; read-out: hT2R14 IC50.
As for `Cc1nc(SCC(=O)N2CCOCC2)c2c(=O)n(C)c(=O)n(C)c2n1` [Example 6-25, 1,3,7-trimethyl-5-(2-morpholino-2-oxoethylthio)pyrimido[4,5-d]pyrimidine-2,4(1H,3H)-dione], the pIC50 is 6.00.

For the molecule `Cc1c(F)cccc1NS(=O)(=O)c1ccc2c(c1)c(=O)n(C)c(=O)n2C` [Example 6-18, N-(3-fluoro-2-methylphenyl)-1,3-dimethyl-2,4-dioxo-1,2,3,4-tetrahydroquinazoline-6-sulfonamide], the pIC50 was 6.03.

For the molecule `Cc1nc(SCC(=O)N2CCCCC2)c2c(=O)n(C)c(=O)n(C)c2n1` [Example 6-24, 1,3,7-trimethyl-5-(2-oxo-2-(piperidin-1-yl)ethylthio)pyrimido[4,5-d]pyrimidine-2,4(1H,3H)-dione], the pIC50 is 6.53.

Consider `CNS(=O)(=O)c1ccc2[nH]c(=O)c(=O)[nH]c2c1` [Example 6-30, N-methyl-2,3-dioxo-1,2,3,4-tetrahydroquinoxaline-6-sulfonamide], for which the pIC50 is 5.21.

With `CC(=O)CSc1nc(C2CCCC2)nc2c1c(=O)n(C)c(=O)n2C` [Example 6-15, 7-cyclopentyl-1,3-dimethyl-5-(2-oxopropylthio)pyrimido[4,5-d]pyrimidine-2,4(1H,3H)-dione], the pIC50 was 5.27.

The same assay, now with this note: read-out: IC50 on hT2R14 bitter receptor.
Take `O=C(O)c1ccc(CN(Cc2cccc(F)c2)S(=O)(=O)c2ccc(O)cc2)cc1` [Example 5-45, 4-((N-(3-fluorobenzyl)-4-hydroxyphenylsulfonamido)methyl)benzoic acid]: the pIC50 was 6.34.

Consider `COc1ccc(CN(Cc2ccccc2)S(=O)(=O)c2ccc(C(=O)O)cc2)cc1OC` [Example 5-39, 4-(N-benzyl-N-(3,4-dimethoxybenzyl)sulfamoyl)benzoic acid], for which the pIC50 was 6.17.

Values taken from US9247759B2, “Identification of human T2R receptors that respond to bitter compounds that elicit the bitter taste in compositions, and the use thereof in assays to identify compounds that inhibit (block) bitter taste in compositions and use thereof” (SENOMYX, INC., priority 2007, dated 2016).
